Laboratory results taken from PubChem BioAssay (NCI).
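Exposure lasted 48 hours, with cells grown in 96-well plates and compounds tested at five concentrations. Definition used: TGI = concentration required for complete inhibition of growth.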

What was measured:
Assay in all cases: NCI tumour cell line growth inhibition, 48 h
A549 NSCLC = tested on: A549 NSCLC
ACHN renal = tested on: ACHN renal
BT-549 breast = tested on: BT-549 breast
CAKI-1 renal = tested on: CAKI-1 renal
DU-145 prostate = tested on: DU-145 prostate
EKVX NSCLC = tested on: EKVX NSCLC
HCT-15 colon = tested on: HCT-15 colon
HL-60(TB) leukemia = tested on: HL-60(TB) leukemia
MCF7 breast = tested on: MCF7 breast
MDA-MB-231 breast = tested on: MDA-MB-231 breast
MDA-MB-435 = tested on: MDA-MB-435
NCI-H23 lung = tested on: NCI-H23 lung
NCI-H460 lung = tested on: NCI-H460 lung
NCI/ADR-RES ovarian = tested on: NCI/ADR-RES ovarian
SF-295 CNS = tested on: SF-295 CNS
SK-MEL-28 melanoma = tested on: SK-MEL-28 melanoma
SNB-75 CNS = tested on: SNB-75 CNS
SW-620 colon = tested on: SW-620 colon
UACC-62 melanoma = tested on: UACC-62 melanoma
UO-31 renal = tested on: UO-31 renal

Row | Structure (SMILES) | TGI (A549 NSCLC) [µM] | TGI (ACHN renal) [µM] | TGI (BT-549 breast) [µM] | TGI (CAKI-1 renal) [µM] | TGI (DU-145 prostate) [µM] | TGI (EKVX NSCLC) [µM] | TGI (HCT-15 colon) [µM] | TGI (HL-60(TB) leukemia) [µM] | TGI (MCF7 breast) [µM] | TGI (MDA-MB-231 breast) [µM] | TGI (MDA-MB-435) [µM] | TGI (NCI-H23 lung) [µM] | TGI (NCI-H460 lung) [µM] | TGI (NCI/ADR-RES ovarian) [µM] | TGI (SF-295 CNS) [µM] | TGI (SK-MEL-28 melanoma) [µM] | TGI (SNB-75 CNS) [µM] | TGI (SW-620 colon) [µM] | TGI (UACC-62 melanoma) [µM] | TGI (UO-31 renal) [µM]
1 | O=C(OCc1ccccc1)N(CCCCN(CCCNC(=O)C(F)(F)F)C(=O)OCc1ccccc1)CCCNC(=O)C(F)(F)F | > 100 | > 100 | > 100 | 3.55 | > 100 | > 100 | > 100 | > 100 | > 100 | > 100 | > 100 | > 100 | > 100 | > 100 | > 100 | > 100 | > 100 | > 100 | > 100 | > 100
2 | O=c1c2cccnc2n2n1Cc1ccccc1C2 | > 100 | > 100 | > 100 | > 100 | > 100 | > 100 | > 100 | > 100 | > 100 | > 100 | > 100 | > 100 | > 100 | > 100 | > 100 | > 100 | > 100 | > 100 | > 100 | > 100
3 | O=C(C1OC1c1ccc(Cl)cc1)C12CC3CC(CC(C3)C1)C2 (stereo not given) | 48.5 | 90.1 | 52.1 | 67.5 | > 100 | 56.3 | 82 | 42.6 | 73.9 | 54.8 | 33.1 | 38.4 | 31.8 | 49 | 58.6 | 32.5 | 96.1 | 44.6 | 45.1 | 41.9
4 | CC1OC(OC2C(OC(=O)[C@]34CCC(C)(C)C[C@H]3C3=CC[C@@H]5[C@@]6(C)CC[C@H](OC7OC(C(=O)O)C(O)C(O)C7O)C(C)(C)[C@@H]6CC[C@@]5(C)[C@]3(C)C[C@H]4O)OCC(O)C2O)C(O)C(O)C1OC1OCC(OC2OCC(O)C(O)C2O)C(O)C1O (stereo not given in full) | 15.5 | 15.8 | 13 | 21.6 | 23.8 | 15.2 | 28 | 18.1 | 17.6 | 11.9 | 17.8 | 4.87 | 32.6 | 25.1 | 22.2 | 11.7 | 26.1 | 23.1 | 23.7 | 4.84
5 | Nc1ncc(Br)c(NCC2(CO)CCC2)n1 | > 100 | > 100 | > 100 | > 100 | > 100 | > 100 | > 100 | > 100 | > 100 | > 100 | > 100 | > 100 | > 100 | > 100 | > 100 | > 100 | > 100 | > 100 | > 100 | > 100
6 | COc1cccc2c1C(=O)C1=C(C2=O)C(O)CC(C)(C)O1 (stereo not given) | > 100 | > 100 | > 100 | > 100 | > 100 | > 100 | > 100 | 33.8 | > 100 | 87.7 | 35.2 | 74.5 | > 100 | 75.7 | > 100 | > 100 | > 100 | > 100 | 60.9 | > 100
7 | CN1CCc2cc3c(c4c2C1C(O)c1ccccc1-4)OCO3 (stereo not given) | 52.1 | > 100 | 19.4 | 18.2 | > 100 | 35.4 | 20.3 | 5.06 | 19.3 | 22.5 | 28 | 48.2 | 11.9 | 53.9 | 21.1 | 85.7 | 28.5 | > 100 | 25.9 | 34
8 | COc1c2c(cc3c1C(=O)c1c(O)cccc1C3=O)CC(O)CC2 (stereo not given) | > 100 | > 100 | 43.1 | > 100 | > 100 | > 100 | > 100 | > 100 | > 100 | 51.9 | > 100 | 47 | > 100 | > 100 | 46.5 | > 100 | > 100 | > 100 | > 100 | > 100
9 | CC1OC(OC2C(O[C@H]3CC[C@@H]4C(=CC[C@@H]5[C@@]4(C)C(=O)C[C@]4(C)[C@@H]([C@H](C)CC[C@@H](O)C(C)(C)O)CC[C@@]54C)C3(C)C)OC(CO)C(O)C2O)C(O)C(O)C1O (stereo not given in full) | > 100 | > 100 | > 100 | > 100 | > 100 | > 100 | > 100 | > 100 | > 100 | > 100 | > 100 | > 100 | > 100 | > 100 | > 100 | > 100 | > 100 | > 100 | > 100 | > 100
10 | COc1ccc(N2CN3OC(=O)N(c4ccc(OC)cc4)[C@@]3(c3ccccc3)C2)cc1 | > 100 | > 100 | > 100 | > 100 | > 100 | > 100 | > 100 | 67.9 | > 100 | 99.6 | 7.12 | > 100 | > 100 | 32 | 92.9 | > 100 | 95.2 | > 100 | > 100 | > 100
11 | Cc1ccc(Cc2n[nH]c(=O)[nH]2)cc1 | > 100 | > 100 | > 100 | > 100 | > 100 | > 100 | > 100 | > 100 | > 100 | > 100 | > 100 | > 100 | > 100 | > 100 | > 100 | > 100 | > 100 | > 100 | > 100 | > 100
12 | CC(=O)Oc1c(C)c2c(c3ncccc13)OC(C)C2 (stereo not given) | 26.2 | 24.5 | 35.6 | 27.8 | 29.8 | 30.8 | 24.5 | 38.8 | 32.5 | 26.2 | 19 | 32.9 | 22.7 | 35.9 | 28.5 | 26.8 | 28 | 27.2 | 24.6 | 28.4
13 | O=C1NC(N/N=C/c2ccccc2)=N/C1=C\c1ccco1 | 81.3 | 55.4 | 70.6 | > 100 | > 100 | > 100 | > 100 | > 100 | > 100 | > 100 | > 100 | 95.6 | 45.5 | > 100 | > 100 | > 100 | > 100 | > 100 | > 100 | 86
14 | C=C1C[C@@H]2CC[C@@]34CC5O[C@H]6C(O[C@H]7CC[C@H](CC(=O)O[C@@H]8[C@@H](C)[C@@H]9O[C@@H]%10C[C@]%11(C[C@@H]%12O[C@]%13(C[C@H](C)[C@@H]%14O[C@@H]%15CC(C(O)CO)O[C@@H]%15C[C@@H]%14O%13)C[C@H](C)[C@@H]%12O%11)O[C@@H]%10C[C@@H]9O[C@H]8CC8O[C@@H](CC[C@@H]1O2)C[C@@H](C)C8(O)CO)O[C@@H]7[C@@H]6O3)[C@H]5O4 (stereo not given in full) | > 1 | > 1 | 0.469 | > 1 | > 1 | > 1 | > 1 | > 1 | > 1 | > 1 | > 1 | > 1 | > 1 | > 1 | > 1 | > 1 | > 1 | > 1 | > 1 | > 1
15 | CS(=O)(=O)OCCCCOS(=O)(=O)CF | > 100 | > 100 | > 100 | > 100 | > 100 | > 100 | > 100 | > 100 | > 100 | > 100 | > 100 | > 100 | > 100 | > 100 | > 100 | > 100 | > 100 | > 100 | > 100 | > 100
16 | O=C1N(C2CCCCC2)C(=O)N1C1CCCCC1 | > 54.5 | 12 | 5.29 | 25.2 | > 58.9 | > 100 | 22.2 | 0.365 | 48.6 | 15.6 | > 81.4 | 23.8 | 30.3 | 14.9 | 14.3 | 20.7 | > 100 | 26.4 | 1.9 | 0.199
17 | C1=CC2C=CC(C=C1)P2c1ccccc1 (stereo not given) | > 100 | > 100 | > 100 | > 100 | > 100 | > 100 | > 100 | > 100 | > 100 | > 100 | > 100 | > 100 | > 100 | > 100 | > 100 | > 100 | > 100 | > 100 | > 100 | > 100
18 | O=C1C=Cc2c(Br)sc(Br)c21 | > 100 | 57.7 | > 100 | 41.1 | > 100 | 81 | 90.4 | 58.7 | > 100 | 52.4 | 46.1 | > 100 | > 100 | > 100 | > 100 | 84.9 | > 100 | 43.7 | 76.4 | 39.2
19 | NC(=O)C(=CNC(N)=S)C(N)=O | > 100 | > 100 | > 100 | > 100 | > 100 | > 100 | > 100 | > 100 | > 100 | > 100 | > 100 | > 100 | > 100 | > 100 | > 100 | > 100 | > 100 | > 100 | > 100 | > 100
20 | C[N+](C)(CCCn1ccnc1[N+](=O)[O-])CCCn1ccnc1[N+](=O)[O-] | > 100 | > 100 | > 100 | > 100 | > 100 | > 100 | > 100 | > 100 | > 100 | > 100 | > 100 | > 100 | > 100 | > 100 | > 100 | > 100 | > 100 | > 100 | > 100 | > 100
21 | O=C1OCN(c2ccccc2)C12CCN(Cc1ccccc1)CC2 | > 100 | > 100 | > 100 | > 100 | > 100 | > 100 | 94.6 | > 100 | > 100 | 66.6 | 31.2 | > 100 | 54.5 | > 100 | 31.1 | 34 | 59.9 | 49.8 | 37.2 | > 100
22 | CN(Cc1cnc2nc(N)nc(N)c2n1)c1ccc(C(=O)NCCS(=O)(=O)O)cc1 | > 100 | > 100 | > 100 | > 100 | > 100 | > 100 | > 100 | > 100 | > 100 | > 100 | > 100 | > 100 | > 100 | > 100 | > 100 | > 100 | > 100 | > 100 | > 100 | > 100
